Test systems include ACHN; SF-295; OVCAR-5; RPMI-8226; SNB-19; K562; OVCAR-3; A498; COLO 205; SK-MEL-28; EKVX; DU-145; PC-3; HT-29; OVCAR-8; UO-31; Hs-578T; HOP-62; NCI/ADR-RES; MDA-MB-231.
Experiment in all cases: inhibition of tumour cell growth, NCI panel, 48 h

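In this assay, cells in 96-well plates receive the compound at five concentrations for 48 hours. Endpoints are linearly interpolated between the surrounding concentrations. Abbreviation: GI50, concentration required for 50% inhibition of growth.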 Active and inactive are the calls of the source. No stated cut-off is given here; in the data, active = GI50 up to about 1.1 µM and inactive = higher.

Consider `CCOC(=O)Cc1nc2c(O)ncnc2n1C1OC(COC(C)=O)C(OC(C)=O)C1OC(C)=O` (stereo not given), for which the GI50 with ACHN, with SF-295, in the test with OVCAR-5, in the test with RPMI-8226, with SNB-19 and in the test with K562 was > 100 µM (inactive) in each case. Also, the GI50 with OVCAR-3, with A498, with COLO 205, with SK-MEL-28, with EKVX and in the test on DU-145 was > 100 µM (inactive) in each case. In addition, the GI50 with PC-3, in the test on HT-29, in the test on OVCAR-8, in the test with UO-31, with Hs-578T and in the test with HOP-62 was > 100 µM (inactive) throughout. The GI50 in the test on NCI/ADR-RES and with MDA-MB-231 was > 100 µM (inactive) each time.
For `Cc1c2c(C(N)=O)nccc2c(C)c2c1c1ccccc1n2Cc1ccccc1`, the GI50 is 16.3 µM (inactive) with ACHN; 10.8 µM (inactive) with SF-295; 28.6 µM (inactive) in the test on OVCAR-5; 26.8 µM (inactive) in the test on RPMI-8226; 14.8 µM (inactive) with SNB-19; 22.7 µM (inactive) in the test on K562. In addition, the GI50 in the test with OVCAR-3 is 3.97 µM (inactive); in the test with A498, 21 µM (inactive); in the test with COLO 205 it was > 10 µM (inactive); in the test with SK-MEL-28, 54.5 µM (inactive); in the test with EKVX, 43.6 µM (inactive); in the test with DU-145 it was 27.7 µM (inactive). Also, the GI50 in the test on PC-3 was 13 µM (inactive); in the test with HT-29 it was 18.8 µM (inactive); with OVCAR-8 it was 10.6 µM (inactive); in the test with UO-31 it was 16.4 µM (inactive); with Hs-578T, 6.07 µM (inactive); with HOP-62 it was 6.38 µM (inactive). In addition, the GI50 in the test on NCI/ADR-RES and with MDA-MB-231 was 9.75 µM (inactive) throughout.
On to `CC1=C(O)C(=O)C=C2C1=CC=C1[C@@]2(C)CC[C@@]2(C)[C@@H]3C[C@](C)(C(=O)O)CC[C@]3(C)CC[C@]12C` [CELASTROL], for which the GI50 was 0.0169 µM (active) in the test on ACHN; 0.194 µM (active) with SF-295; 0.18 µM (active) in the test with OVCAR-5; < 0.0136 µM (active) in the test on RPMI-8226; 0.0757 µM (active) with SNB-19; 0.0201 µM (active) with K562. The GI50 with OVCAR-3 is 0.0264 µM (active); with A498 it was 0.0335 µM (active); with COLO 205, 0.0166 µM (active); in the test with SK-MEL-28, 0.0164 µM (active); in the test on EKVX, 0.0471 µM (active); in the test on DU-145 it was 0.0675 µM (active). The GI50 in the test on PC-3 was 0.0393 µM (active); in the test on HT-29, 0.033 µM (active); in the test on OVCAR-8 it was 0.0226 µM (active); with UO-31, 0.0308 µM (active); in the test on Hs-578T it was 0.0427 µM (active); in the test with HOP-62, 0.237 µM (active). Moreover, the figures for the GI50 with NCI/ADR-RES and in the test on MDA-MB-231 were 0.0255 µM (active) and 0.021 µM (active), respectively.
As for `CN(C)c1ccc(/C=C(\NC(=O)c2ccccc2)C2NC(Cc3c[nH]c4ccccc34)C(=O)O2)cc1` (stereo not given), the GI50 was 8.85 µM (inactive) in the test with ACHN; 36.1 µM (inactive) in the test on SF-295; > 83.6 µM (inactive) in the test with OVCAR-5; 6.71 µM (inactive) in the test on RPMI-8226; 12 µM (inactive) with SNB-19; 10.9 µM (inactive) in the test with K562. Also, the GI50 with OVCAR-3 is 60.8 µM (inactive); in the test with A498, > 93.1 µM (inactive); in the test on COLO 205 it was 4.06 µM (inactive); with SK-MEL-28, > 100 µM (inactive); with EKVX, 8.99 µM (inactive); with DU-145, > 100 µM (inactive). Also, the GI50 in the test with PC-3 is 27.4 µM (inactive); in the test with HT-29, 3.25 µM (inactive); with OVCAR-8 it was 5.98 µM (inactive); in the test with UO-31 it was 17.3 µM (inactive); with Hs-578T, 11.2 µM (inactive); in the test with HOP-62, 41.2 µM (inactive). Further, the GI50 with NCI/ADR-RES was > 100 µM (inactive); with MDA-MB-231, > 50.4 µM (inactive).
With `C#CC1NC(=O)C1N(CC)CC` (stereo not given), the GI50 in the test with ACHN, in the test with SF-295, in the test on OVCAR-5, in the test with RPMI-8226, with SNB-19 and in the test on K562 was > 100 µM (inactive) throughout. For the same molecule, the GI50 with OVCAR-3, in the test on A498, with COLO 205, in the test on SK-MEL-28, in the test on EKVX and with DU-145 was > 100 µM (inactive) throughout. Further, the GI50 in the test with PC-3, with HT-29, in the test on OVCAR-8, with UO-31, with Hs-578T and with HOP-62 was > 100 µM (inactive) throughout. Besides, the GI50 with NCI/ADR-RES and in the test with MDA-MB-231 was > 100 µM (inactive) in each case.
Consider `C=C[C@]1(O[Si](C)(C)C)C[C@@]2(C(=O)OCC)C(O)C(=O)N3CCc4cc(OC)c(OC)cc4[C@]312` (stereo not given in full), for which the GI50 in the test with ACHN is > 100 µM (inactive); in the test with SF-295, > 100 µM (inactive); in the test on OVCAR-5, > 100 µM (inactive); in the test with RPMI-8226 it was 61.1 µM (inactive); in the test with SNB-19, > 100 µM (inactive); in the test with K562, > 100 µM (inactive). In addition, the GI50 with OVCAR-3 is > 100 µM (inactive); in the test on A498 it was 40.9 µM (inactive); in the test on COLO 205 it was > 100 µM (inactive); in the test on SK-MEL-28, > 100 µM (inactive); in the test with EKVX it was > 100 µM (inactive); in the test on DU-145, > 100 µM (inactive). The GI50 with PC-3 was 93.8 µM (inactive); in the test with HT-29, > 100 µM (inactive); in the test with OVCAR-8, > 100 µM (inactive); with UO-31, > 100 µM (inactive); in the test on Hs-578T, 31.3 µM (inactive); in the test on HOP-62, > 100 µM (inactive). Also, the GI50 with NCI/ADR-RES and in the test on MDA-MB-231 was > 100 µM (inactive) throughout.
As to `CC(=O)OCC1OC(n2c(N)c(C#N)c(-c3ccc(C)cc3)c(C#N)c2=S)C(OC(C)=O)C(OC(C)=O)C1OC(C)=O` (stereo not given), the GI50 with ACHN is 29.1 µM (inactive); with SF-295 it was 25.4 µM (inactive); in the test with OVCAR-5, 53.5 µM (inactive); in the test on RPMI-8226, 29.2 µM (inactive); with SNB-19 it was 18.8 µM (inactive); in the test on K562, 40.5 µM (inactive). Moreover, the GI50 is 31.3 µM (inactive) with OVCAR-3; 39.9 µM (inactive) with A498; 16 µM (inactive) with COLO 205; 38.7 µM (inactive) in the test with SK-MEL-28; 18.3 µM (inactive) in the test on EKVX; 15.4 µM (inactive) with DU-145. For the same molecule, the GI50 is 31.8 µM (inactive) in the test on PC-3; 18.7 µM (inactive) with HT-29; 15.2 µM (inactive) with OVCAR-8; 17.9 µM (inactive) in the test on UO-31; 19.8 µM (inactive) in the test with Hs-578T; 20 µM (inactive) with HOP-62. The GI50 in the test with NCI/ADR-RES was 30 µM (inactive); with MDA-MB-231 it was 44.9 µM (inactive).
